# According to patent US20070293485A1, “DRUG ADMINISTRATION METHODS” (priority 2006, published 2007):
# “Also recorded” adds a separate entry of the source.
# Assays:
# xenograft tumor = assay: Xenograft tumor growth models (preclinical); type: in vivo
# [1] = test system: protein-rDNA quadruplex interaction; assay: Inhibition of rRNA biogenesis in cancer cells; type: cell-based
# [2] = Phase I study: pharmacokinetics in plasma, whole blood and urine of patients; type: in vivo, human
# Source text: Analysis has determined that Compound A whole blood concentration is nearly ten times that of plasma concentration. The reversible binding and subsequent slow release of Compound A from blood cells provides a “reservoir” effect to extend the Compound A plasma terminal half life. Further details of these observations are described in an Example that follows. This pharmacokinetic property allows consideration of a less frequent dosing schedule, and a phase I study of weekly intravenous Compound A administration is being implemented.
# Pharmacokinetic analyses of plasma samples collected on Day 1 and Day 5 of dosing for every patient were performed in cohort batches during the conduct of the phase I study of Compound A in refractory solid tumors and lymphomas (Protocol C3-05-001). […] Saturation of elimination was an unlikely cause of the extended half life because there was no apparent accumulation of drug in plasma.
# The pharmacokinetic sampling procedure in the phase I clinical trial was amended to allow for whole blood and plasma to be collected from study patients. When these samples were analyzed, the binding of Compound A to blood cells was again evident.
# human blood cells [3] = assay: Wash off of bound drug from blood cells with fresh plasma; type: in vitro ADME; settings: one, two and four washes
# Experimental: (§1) To test if this binding also occurs with human blood cells, an in vitro experiment was conducted with human whole blood spiked with Compound A concentrations of 1, 5, 10, and 50 μM. […] Results of the analysis of whole blood and plasma are illustrated in FIG. 7. The permanence of the binding was studied by attempting to “wash off” bound drug with fresh plasma. […] This reversible binding to blood cells is the reason for the observed extended plasma terminal half life. The ability of fresh plasma to wash off Compound A from blood cells after one, two and four washes is illustrated in FIGS. 8, 9, and 10, respectively.
# [4] = Phase I study, one or two hour infusion: plasma pharmacokinetics; type: in vivo, human
# Experimental: The objectives of the study described hereafter are to determine the maximum tolerated dose (MTD) and dose limiting toxicities (DLTs), to establish the pharmacokinetics (PKs), and to determine the recommended dose for further clinical development of Compound A.
# (§2) Eligible patients with advanced solid tumors or lymphomas whose tumors had progressed on, or for whom there are no standard therapies, receive Compound A in successive dose cohorts at: 10, 20, 40, 80 and 160 mg/m^2. Dosing is by one or two hour intravenous infusion daily for five consecutive days repeated on a three week cycle. […] Response by RECIST is determined after every 2 cycles.
# human blood cells [5] = assay: Human whole blood spiked with Compound A in vitro: binding to blood cells; type: in vitro ADME
# Experimental: as §1
# malignant cells = assay: Apoptosis in malignant cells in vitro; type: cell-based
# [6] = test system: patients with advanced solid tumors; assay: Phase I study, daily intravenous infusion (one to six hours) on first five days of a three week cycle: adverse events, DLT, MTD; type: in vivo
# Source text: Compound A is designed to inhibit over-expressed ribosomal RNA synthesis in cancer cells by disrupting an essential protein-rDNA quadruplex complex thereby inducing selective apoptosis. A Phase I clinical trial for Compound A has been undertaken to determine the dose limiting toxicities (DLTs), maximum tolerated dose (MTD) and pharmacokinetics (PK) of this agent with administration by infusion for about six hours per day.
# (§3) Eligible patients with advanced solid tumors received Compound A in successive dose cohorts at: 10, 20, 40, 80, 160, 240, 360 and 480 mg/m^2. Drug is administered by daily intravenous infusion on the first five consecutive days of a three week cycle and the infusion duration has varied from one hour to six hours. Response by RECIST is determined after every 2 cycles.
# advanced solid tumors = assay: Phase I study, infusion up to six hours: response by RECIST, disease stabilization; type: in vivo, human
# Experimental: as §3
# [7] = test system: patients with advanced solid tumors or lymphomas; assay: Phase I study, one or two hour intravenous infusion daily for five consecutive days on a three week cycle: adverse events, DLT, MTD; type: in vivo
# Experimental: Dosing is by one or two hour intravenous infusion daily for five consecutive days repeated on a three week cycle. […] Response by RECIST is determined after every 2 cycles.
# Drug resistance in vitro = type: cell-based
# [8] = test system: advanced solid tumors or lymphomas; assay: Phase I study, one or two hour infusion: response by RECIST, disease stabilization; type: in vivo, human
# Experimental: as §2
smiles,measurement,setting,value
CN1CCCC1CCNC(=O)c1cn2c3c(c(N4CCC(c5cnccn5)C4)c(F)cc3c1=O)Oc1cc3ccccc3cc1-2 (stereo not drawn) [Compound A],suppression of xenograft tumor growth,xenograft tumor,potency in suppressing xenograft tumor growth with a broad therapeutic window
same,effect on rRNA biogenesis,[1],directly inhibits aberrant rRNA biogenesis
same,urinary clearance rate,[2]; calculated from a 12-hour quantitative urine collection,10 % of the glomerular filtration rate
same,"plasma terminal half life, trend","[2]; patients, Day 5 vs Day 1 and dose escalation",increase with repeated dosing and with each dose level escalation
same,saturability of blood cell binding,"[2]; patients, comparing Day 1 and Day 5",did not appear to be saturable
same,whole blood concentration relative to plasma concentration,"[2]; patients, on Day 1 and on Day 5",approximately ten
same,accumulation in plasma concentration,"[2]; patients, repeated dosing",without significant accumulation
same,binding to blood cells,"[2]; patients, whole blood and plasma specimens",bind reversibly to blood cells
same,route of elimination,[2]; urine,eliminated unchanged in urine
same,permanence of binding to blood cells,human blood cells [3],easily reversible
same,linearity of PK parameters (AUC) with dose level,"[4]; day 1 of dosing, dose cohorts 10-160 mg/m^2",linearity; also recorded: linear pharmacokinetic behavior
same,half-life,"[4]; human, plasma, intravenous, following the first dose (day 1), across all dose levels 10-160 mg/m^2, read-out: plasma terminal half life (converted)",~10 h
same,"maximum plasma concentration (Cmax), effect of extending infusion",[4]; infusion extended to 2 hours at 160 mg/m^2,decreased
same,saturability of binding to human blood cells,human blood cells [5]; even at 50 μM,not saturable
same,binding to human blood cells,"human blood cells [5]; human whole blood spiked with 1, 5, 10, and 50 μM",concentration dependent binding
same,induction of apoptosis,malignant cells,rapidly induces selective apoptosis
same,MTD,"[6]; daily iv infusion x5 days, three week cycle, infusion up to six hours",360 mg/m^2
same,tolerability,[6]; in vivo,well tolerated
same,duration of stable disease,"advanced solid tumors; 10 mg/m^2, one patient with prostate cancer",six
same,duration of stable disease,"advanced solid tumors; 160 mg/m^2 (internal dose escalation from 80 mg/m2), one patient with anorectal cancer",twelve
same,duration of stable disease,"advanced solid tumors; 160 mg/m^2, one patient with liposarcoma",six
same,"cycles completed, patient remains on-study","advanced solid tumors; 240 mg/m^2 (internal dose escalation from 40 mg/m^2), one patient with neuroendocrine islet cell cancer of the pancreas",26 cycles
same,patients with stable disease for longer than four months,"advanced solid tumors; 42 patients, 10-480 mg/m^2",Four
same,patients with disease stabilization for longer than one year,"advanced solid tumors; 42 patients, continuing on study",one
same,tolerability of doses,"[7]; 10, 20, 40, 80 and 160 mg/m^2, one or two hour iv infusion daily x5, three week cycle, 21 patients",well tolerated
same,drug-related serious adverse events,[7]; 10-160 mg/m^2,No drug-related serious adverse events
same,grade 3 adverse events deemed related to Compound A,"[7]; 10-160 mg/m^2, 21 patients",none
same,grade 3 adverse events reported during the study,"[7]; 10-160 mg/m^2, 21 patients",nine
same,severity of adverse events deemed at least possibly related to drug,[7]; all studied dose levels 10-160 mg/m^2,grade 1 or 2
same,maximum tolerated dose (MTD),"[7]; highest dose 160 mg/m^2, one or two hour infusion",not yet been defined
same,cough during infusion,"[7]; one-hour infusion, 160 mg/m^2, resolved spontaneously upon completion of infusion",transient grade 1 cough
same,cough after extending the infusion duration,"[7]; two hour infusion, 160 mg/m^2",the cough resolved
same,dose limiting toxicities,[7]; up to 160 mg/m^2,no observations to date of dose limiting toxicities
same,drug resistance,Drug resistance in vitro,no drug resistance has been observed
same,longest period of stable disease to date,[8]; 10-160 mg/m^2,24 weeks
same,patients with disease stabilization of longer than / at least four months,"[8]; 10-160 mg/m^2, 21 patients",three
same,patients with stable disease (SD) at evaluation following two cycles,"[8]; 10-160 mg/m^2, 21 patients",Six
same,objective tumor responses,"[8]; 10-160 mg/m^2, 21 patients, RECIST after every 2 cycles",No objective tumor responses
same,median duration of disease stabilization,[8]; six patients with stable disease,14 weeks
